From patent US9718819B2 (Merck Sharp & Dohme Corp., priority 2012, dated 2017)

molecular target: HIV-1 RT wild-type enzyme (Human immunodeficiency virus type 1 group M subtype B (isolate HXB2) (HIV-1), UniProt P04585); assay: HIV-1 reverse transcriptase inhibitory activity (RT polymerase assay); assay type: biochemical; settings: HIV-1 RT wild-type enzyme 83 pM; RNA-dependent DNA polymerase activity; read-out: IC50
Experimental: Determination of HIV-1 Reverse Transcriptase Inhibitory Activity
The heterodimeric nucleic acid substrate used in the HIV-1 RT polymerase reactions was generated by annealing the DNA primer, biotinylated pD500 (Sigma Aldrich, USA, 5′-biotin-ttg aaa tga ctg cgg tac ggc-3′), SEQ ID NO. 1 to the nucleotide RNA template t500 (derived from hepatitis C virus [HCV] sequence, IBA, Germany, 5′-[…]-3′), SEQ ID NO 2). […] The mixture was then preincubated on an orbital shaker for 30 min at room temperature in microtiter plates (Costar 3365, Corning, USA). A polymerization reaction was initiated by the addition of RNA template/pD500 DNA primer hybrid (16.6 nM final of RNA/DNA hybrid) and dNTPs (2 μM dATP, dGTP, dCTP and 66.6 nM Ru-dUTP (Meso Scale Discovery, USA)). Plate was sealed and incubated for 5-10 min at room temperature on an orbital shaker. Plate was then incubated for 90 min at 37° C. and reactions quenched with 60 μl quenching buffer (50 mM EDTA, 0.7% BSA, 0.7% Tween-20, 0.017% sodium azide in PBS). The resulting solution was incubated at room temperature for an additional 5 min and then 50 μL was transferred to pre-blocked Avidin plates (L15AA, Meso Scale Discovery). Each well of Avidin plate was blocked for 1 h at room temperature with 100 μL 5% BSA in PBS. Blocking solution was removed by tapping vigorously on filter paper to remove all excess liquid. Reaction on pre-blocked avidin plate proceeded for 60 min at room temperature and then contents removed by tapping vigorously on filter paper to remove all excess liquid. After washing plate 3 times with 150 μL 1×PBS and blotting dry between cycles, 150 μL 1× Read Buffer T (4× Read Buffer T, Meso Scale Discovery) was added and incubated for 5 min at room temperature before counting on a Sector Imager […] (Meso Scale Discovery). Titration curves and IC50 values were calculated using a four parameter logisitc fit according to standard procedures. Briefly, % Inhibition=100×((sample raw value)−(mean value of the low control or 0% inhibition))/((mean value of wells representing 100% inhbition)−(mean value of 0% inhbition)). In this assay, low control wells contain DMSO (0% inhbition) and 100% inhibition wells contain 1 μM efavirenz.

Question: With CC(C)(C)c1ccc(-c2cc(Cn3cnc(C(F)(F)F)c(Oc4cc(Cl)cc(C#N)c4)c3=O)n[nH]c2=O)cc1 [Example 53, 3-((1-((5-(4-(tert-butyl)phenyl)-6-oxo-1,6-dihydropyridazin-3-yl)methyl)-6-oxo-4-(trifluoromethyl)-1,6-dihydropyrimidin-5-yl)oxy)-5-chlorobenzonitrile] as the molecule, how does the IC50 read?
Answer: 70 nM

Question: For N#Cc1cc(Cl)cc(Oc2c(C(F)(F)F)ncn(Cc3cc(-c4cccc(C#N)c4)c(=O)[nH]n3)c2=O)c1 [Example 54, 3-chloro-5-((1-((5-(3-cyanophenyl)-6-oxo-1,6-dihydropyridazin-3-yl)methyl)-6-oxo-4-(trifluoromethyl)-1,6-dihydropyrimidin-5-yl)oxy)benzonitrile], which IC50 is on record?
Answer: 8 nM

Question: For N#Cc1cc(Cl)cc(Oc2c(C(F)(F)F)ncn(Cc3cc(-c4cc(F)c(F)c(F)c4)c(=O)[nH]n3)c2=O)c1 [Example 55, 3-chloro-5-((6-oxo-1-((6-oxo-5-(3,4,5-trifluorophenyl)-1,6-dihydropyridazin-3-yl)methyl)-4-(trifluoromethyl)-1,6-dihydropyrimidin-5-yl)oxy)benzonitrile], which IC50 is on record?
Answer: 11 nM

Question: Which IC50 does the source give for Cc1cc(F)ccc1-c1cc(Cn2cnc(C(F)(F)F)c(Oc3cc(Cl)cc(C#N)c3)c2=O)n[nH]c1=O [Example 56, 3-chloro-5-((1-((5-(4-fluoro-2-methylphenyl)-6-oxo-1,6-dihydropyridazin-3-yl)methyl)-6-oxo-4-(trifluoromethyl)-1,6-dihydropyrimidin-5-yl)oxy)benzonitrile] here?
Answer: 76 nM

Question: Which IC50 does the source give for N#Cc1cc(Cl)cc(Oc2c(C(F)(F)F)ncn(Cc3cc(-c4cccc5c4OCC5)c(=O)[nH]n3)c2=O)c1 [Example 57, 3-chloro-5-((1-((5-(2,3-dihydrobenzofuran-7-yl)-6-oxo-1,6-dihydropyridazin-3-yl)methyl)-6-oxo-4-(trifluoromethyl)-1,6-dihydropyrimidin-5-yl)oxy)benzonitrile] here?
Answer: 11 nM

Question: With Cc1ccc(-c2cc(Cn3cnc(C(F)(F)F)c(Oc4cc(Cl)cc(C#N)c4)c3=O)n[nH]c2=O)cc1F [Example 58, 3-chloro-5-((1-((5-(3-fluoro-4-methylphenyl)-6-oxo-1,6-dihydropyridazin-3-yl)methyl)-6-oxo-4-(trifluoromethyl)-1,6-dihydropyrimidin-5-yl)oxy)benzonitrile] as the molecule, how does the IC50 read?
Answer: 4 nM

Question: How did the IC50 turn out when COc1ccc(F)cc1-c1cc(Cn2cnc(C(F)(F)F)c(Oc3cc(Cl)cc(C#N)c3)c2=O)n[nH]c1=O [Example 59, 3-chloro-5-((1-((5-(5-fluoro-2-methoxyphenyl)-6-oxo-1,6-dihydropyridazin-3-yl)methyl)-6-oxo-4-(trifluoromethyl)-1,6-dihydropyrimidin-5-yl)oxy)benzonitrile] was run?
Answer: 125 nM

Question: With Cc1cc(F)cc(-c2cc(Cn3cnc(C(F)(F)F)c(Oc4cc(Cl)cc(C#N)c4)c3=O)n[nH]c2=O)c1 [Example 60, 3-chloro-5-((1-((5-(3-fluoro-5-methylphenyl)-6-oxo-1,6-dihydropyridazin-3-yl)methyl)-6-oxo-4-(trifluoromethyl)-1,6-dihydropyrimidin-5-yl)oxy)benzonitrile] as the molecule, how does the IC50 read?
Answer: 7 nM

Question: COc1cc(F)cc(-c2cc(Cn3cnc(C(F)(F)F)c(Oc4cc(Cl)cc(C#N)c4)c3=O)n[nH]c2=O)c1 [Example 61, 3-chloro-5-((1-((5-(3-fluoro-5-methoxyphenyl)-6-oxo-1,6-dihydropyridazin-3-yl)methyl)-6-oxo-4-(trifluoromethyl)-1,6-dihydropyrimidin-5-yl)oxy)benzonitrile] was tested. Which IC50 did it give?
Answer: 11 nM

Question: How did the IC50 turn out when N#Cc1cc(Cl)cc(Oc2c(C(F)(F)F)ncn(Cc3cc(-c4ccc(F)c(F)c4F)c(=O)[nH]n3)c2=O)c1 [Example 62, 3-chloro-5-((6-oxo-1-((6-oxo-5-(2,3,4-trifluorophenyl)-1,6-dihydropyridazin-3-yl)methyl)-4-(trifluoromethyl)-1,6-dihydropyrimidin-5-yl)oxy)benzonitrile] was run?
Answer: 10 nM

Question: How did the IC50 turn out when COc1ccc(F)c(-c2cc(Cn3cnc(C(F)(F)F)c(Oc4cc(Cl)cc(C#N)c4)c3=O)n[nH]c2=O)c1 [Example 63, 3-chloro-5-((1-((5-(2-fluoro-5-methoxyphenyl)-6-oxo-1,6-dihydropyridazin-3-yl)methyl)-6-oxo-4-(trifluoromethyl)-1,6-dihydropyrimidin-5-yl)oxy)benzonitrile] was run?
Answer: 10 nM

Question: For N#Cc1cc(Cl)cc(Oc2c(C(F)(F)F)ncn(Cc3cc(-c4ccc5c(c4)CCO5)c(=O)[nH]n3)c2=O)c1 [Example 64, 3-chloro-5-((1-((5-(2,3-dihydrobenzofuran-5-yl)-6-oxo-1,6-dihydropyridazin-3-yl)methyl)-6-oxo-4-(trifluoromethyl)-1,6-dihydropyrimidin-5-yl)oxy)benzonitrile], which IC50 is on record?
Answer: 3 nM

Question: Which IC50 does the source give for N#Cc1cc(Cl)cc(Oc2c(C(F)(F)F)ncn(Cc3cc(-c4ccn[nH]4)c(=O)[nH]n3)c2=O)c1 [Example 65, 3-chloro-5-((6-oxo-1-((6-oxo-5-(1H-pyrazol-5-yl)-1,6-dihydropyridazin-3-yl)methyl)-4-(trifluoromethyl)-1,6-dihydropyrimidin-5-yl)oxy)benzonitrile] here?
Answer: 5 nM

Question: N#Cc1cc(Cl)cc(Oc2c(C(F)(F)F)ncn(Cc3cc(C4CC4)c(=O)[nH]n3)c2=O)c1 [Example 66, 3-chloro-5-((1-((5-cyclopropyl-6-oxo-1,6-dihydropyridazin-3-yl)methyl)-6-oxo-4-(trifluoromethyl)-1,6-dihydropyrimidin-5-yl)oxy)benzonitrile] was tested. Which IC50 did it give?
Answer: 7 nM

Question: For CS(=O)(=O)c1ccc(-c2cc(Cn3cnc(C(F)(F)F)c(Oc4cc(Cl)cc(C#N)c4)c3=O)n[nH]c2=O)cc1 [Example 67, 3-chloro-5-((1-((5-(4-(methylsulfonyl)phenyl)-6-oxo-1,6-dihydropyridazin-3-yl)methyl)-6-oxo-4-(trifluoromethyl)-1,6-dihydropyrimidin-5-yl)oxy)benzonitrile], which IC50 is on record?
Answer: 12 nM

Question: Which IC50 does the source give for N#Cc1cc(Cl)cc(Oc2c(C(F)(F)F)ncn(Cc3cc(-c4ccc(C(O)C(F)F)cc4)c(=O)[nH]n3)c2=O)c1 (centres unmarked) [Example 69, 3-chloro-5-((1-((5-(4-(2,2-difluoro-1-hydroxyethyl)phenyl)-6-oxo-1,6-dihydropyridazin-3-yl)methyl)-6-oxo-4-(trifluoromethyl)-1,6-dihydropyrimidin-5-yl)oxy)benzonitrile] here?
Answer: 10 nM

Question: How did the IC50 turn out when CS(=O)(=O)c1cccc(-c2cc(Cn3cnc(C(F)(F)F)c(Oc4cc(Cl)cc(C#N)c4)c3=O)n[nH]c2=O)c1 [Example 70, 3-chloro-5-((1-((5-(3-(methylsulfonyl)phenyl)-6-oxo-1,6-dihydropyridazin-3-yl)methyl)-6-oxo-4-(trifluoromethyl)-1,6-dihydropyrimidin-5-yl)oxy)benzonitrile] was run?
Answer: 15 nM

Question: How did the IC50 turn out when N#Cc1cc(Cl)cc(Oc2c(C(F)(F)F)ncn(Cc3cc(-c4cn[nH]c4)c(=O)[nH]n3)c2=O)c1 [Example 71, 3-chloro-5-((6-oxo-1-((6-oxo-5-(1H-pyrazol-4-yl)-1,6-dihydropyridazin-3-yl)methyl)-4-(trifluoromethyl)-1,6-dihydropyrimidin-5-yl)oxy)benzonitrile] was run?
Answer: 5 nM

Question: Which IC50 does the source give for Cn1cc(-c2cc(Cn3cnc(C(F)(F)F)c(Oc4cc(Cl)cc(C#N)c4)c3=O)n[nH]c2=O)cn1 [Example 72, 3-chloro-5-((1-((5-(1-methyl-1H-pyrazol-4-yl)-6-oxo-1,6-dihydropyridazin-3-yl)methyl)-6-oxo-4-(trifluoromethyl)-1,6-dihydropyrimidin-5-yl)oxy)benzonitrile] here?
Answer: 7 nM

Question: Which IC50 does the source give for N#Cc1cc(Cl)cc(Oc2c(C(F)(F)F)ncn(Cc3cc(-c4cccnc4)c(=O)[nH]n3)c2=O)c1 [Example 73, 3-chloro-5-((6-oxo-1-((6-oxo-5-(pyridin-3-yl)-1,6-dihydropyridazin-3-yl)methyl)-4-(trifluoromethyl)-1,6-dihydropyrimidin-5-yl)oxy)benzonitrile] here?
Answer: 11 nM

Question: COc1ccc(-c2cc(Cn3cnc(C(F)(F)F)c(Oc4cc(Cl)cc(C#N)c4)c3=O)n[nH]c2=O)cn1 [Example 74] was tested. Which IC50 did it give?
Answer: 17 nM

Question: With N#Cc1ccc(-c2cc(Cn3cnc(C(F)(F)F)c(Oc4cc(Cl)cc(C#N)c4)c3=O)n[nH]c2=O)cc1 [Example 75, 3-chloro-5-((1-((5-(4-cyanophenyl)-6-oxo-1,6-dihydropyridazin-3-yl)methyl)-6-oxo-4-(trifluoromethyl)-1,6-dihydropyrimidin-5-yl)oxy)benzonitrile] as the molecule, how does the IC50 read?
Answer: 20 nM

Question: For Cn1nccc1-c1cc(Cn2cnc(C(F)(F)F)c(Oc3cc(Cl)cc(C#N)c3)c2=O)n[nH]c1=O [Example 76, 3-chloro-5-((1-((5-(1-methyl-1H-pyrazo1-5-yl)-6-oxo-1,6-dihydropyridazin-3-yl)methyl)-6-oxo-4-(trifluoromethyl)-1,6-dihydropyrimidin-5-yl)oxy)benzonitrile], which IC50 is on record?
Answer: 99 nM
